We go through 2 molecules from paper PMC6225118 (2018).

Experiment [1] has as its system Myc22 (c-myc) (DNA, G4) TGAGGGTGGGTAGGGTGGGTAA
In words: G4-FID, thiazole orange displacement. To be noted: 10 mM lithium cacodylate pH 7.4, 20 °C; partial displacement, up to 60%.

Experiment [2] relates to 22AG (DNA, G4) AGGGTTAGGGTTAGGGTTAGGG
In words: CD titration, 260 nm, Hill1 fit. To be noted: 100 mM Na+; apparent; 10 mM lithium cacodylate pH 7.2, 20 °C, 5 µM DNA.

In experiment [3] the test system is F21CTAT (DNA, G4) GGGCTAGGGCTAGGGCTAGGG
Description: FRET melting. As to conditions: 10 mM K+, 90 mM Li+; 10 mM lithium cacodylate pH 7.2; 0.2 µM DNA, 1 µM compound.

For experiment [4], the system named is 22AG (DNA, G4) AGGGTTAGGGTTAGGGTTAGGG
In words: CD titration. To be noted: 100 mM K+; 10 mM lithium cacodylate pH 7.2, 20 °C, 5 µM DNA.

Experiment [5] deals with FCEB25wtT (DNA, G4) AAGGGTGGGTGTAAGTGTGGGTGGGT
Description: FRET melting. As to conditions: 1 mM K+, 99 mM Li+; 10 mM lithium cacodylate pH 7.2; 0.2 µM DNA, 1 µM compound.

The test system of experiment [6] is F21T (DNA, G4) GGGTTAGGGTTAGGGTTAGGG
In words: FRET melting. To be noted: 10 mM lithium cacodylate pH 7.2, 0.2 µM DNA, 1 µM compound.

Experiment [7] relates to FMycT (DNA, G4) TTGAGGGTGGGTAGGGTGGGTAA
Description: FRET melting. To be noted: 1 mM K+, 99 mM Li+; 10 mM lithium cacodylate pH 7.2; 0.2 µM DNA, 1 µM compound.

Experiment [8] deals with FBcl2T (DNA, G4) AGGGGCGGGCGCGGGAGGAAGGGGGCGGGAGCGGGGCTG
In words: FRET melting. As to conditions: 10 mM K+, 90 mM Li+; 10 mM lithium cacodylate pH 7.2; 0.2 µM DNA, 1 µM compound.

Experiment [9] relates to FKit2T (DNA, G4) GGGCGGGCGCGAGGGAGGGG
In words: FRET melting. To be noted: 10 mM K+, 90 mM Li+; 10 mM lithium cacodylate pH 7.2; 0.2 µM DNA, 1 µM compound.

Experiment [10] has as its system ds26 (DNA, duplex) CAATCGGATCGAATTCGATCCGATTG
In words: G4-FID, thiazole orange displacement. To be noted: 10 mM lithium cacodylate pH 7.4, 20 °C, 0.25 µM DNA; up to 10 equivalents.

The test system of experiment [11] is FCEB25L111TT (DNA, G4) AAGGGTGGGTGGGTGGGT
In words: FRET melting. To be noted: 1 mM K+, 99 mM Li+; 10 mM lithium cacodylate pH 7.2; 0.2 µM DNA, 1 µM compound.

In experiment [12] the test system is 22CTA (DNA, G4) AGGGCTAGGGCTAGGGCTAGGG
In words: G4-FID, thiazole orange displacement. As to conditions: 10 mM lithium cacodylate pH 7.4, 20 °C; partial displacement, saturates at 40–60%.

Broadly, the ΔTm is the shift of the melting midpoint relative to a reference. Regarding `Cc1nc(-c2cccc(-c3noc(-c4cccc(-c5nc(-c6cccc(-c7noc(C)n7)n6)no5)c4)n3)n2)no1`, the binding entry in [1] is listed as “yes”; in experiment [4] it was “yes”; in experiment [10], “no”; in experiment [12], “yes”. Moreover, the Kd in experiment [2] was 3.3 µM. The ΔTm in experiment [3] was found to be 4.1 ± 0.1 °C; in [5], 0.9 ± 0.7 °C; in [6] (10 mM K+, 90 mM Li+) it was 10.8 ± 0.4 °C; in experiment [6] (100 mM Na+) it was 16.6 ± 0.8 °C; in experiment [7], 3.9 ± 0.9 °C; in experiment [8], 2.9 ± 0.7 °C. The ΔTm is 5.3 ± 0.4 °C in experiment [9] and 0.9 ± 0.8 °C in experiment [11].
For `Cc1nc(-c2cccc(-c3noc(-c4cccc(-c5nc(-c6cccc(-c7noc(C)n7)n6)no5)n4)n3)n2)no1`, the binding entry in [1] is listed as “yes”; in [4], “yes”; in [10], “no”; in experiment [12] it was “yes”. In addition, the Kd in experiment [2] was determined as 3.6 µM. The ΔTm in experiment [3] turned out to be 5.5 ± 0.2 °C; in experiment [6] (10 mM K+, 90 mM Li+) it was 11.5 ± 0.6 °C; in experiment [6] (100 mM Na+), 13.8 ± 0.4 °C; in experiment [9], 4.1 ± 0.3 °C.
